Measured values published in US10131652B2, “Pyrimidinyloxy benzene derivatives as herbicides” (E. I. DU PONT DE NEMOURS AND COMPANY, priority 2014, dated 2018).
Like-named read-outs stand apart in the source and are kept apart here.

Experiments:
Experiment in all cases: Test D pre-/postemergence plant response
Type in all cases: in vivo
[1] = tested on: pigweed (Amaranthus retroflexus); conditions: Amaranthus retroflexus; for pest or weed control at 16 g/ha: 16 g ai/ha; for pest or weed control at 31 g/ha: 31 g ai/ha; for pest or weed control at 62 g/ha: 62 g ai/ha; for pest or weed control at 125 g/ha: 125 g ai/ha
Excerpt: (§1) Seeds of plant species selected from blackgrass (Alopecurus myosuroides), Italian ryegrass (Lolium multiflorum), winter wheat (Triticum aestivum), galium (catchweed bedstraw, Galium aparine), corn (Zea mays), large (Lg) crabgrass (Digitaria sanguinalis), giant foxtail (Setaria faberii), johnsongrass (Sorghum halepense), lambsquarters (Chenopodium album), morningglory (Ipomoea coccinea), yellow nutsedge (Cyperus esculentus), pigweed (Amaranthus retroflexus), ragweed (common ragweed, Ambrosia elatior), soybean (Glycine max), bamyardgrass (Echinochloa crus-galli), oilseed rape (Brassica napus), waterhemp (common waterhemp, Amaranthus rudis), and velvetleaf (Abutilon theophrasti) were planted into a blend of loam soil and sand and treated preemergence with test chemicals formulated in a non-phytotoxic solvent mixture which included a surfactant. At the same time, plants selected from these crop and weed species and also kochia (Kochia scoparia), wild oat (Avena fatua), and chickweed (common chickweed, Stellaria media) were planted in pots containing Redi-Earth® planting medium (Scotts Company, 14111 Scottslawn Road, Marysville, Ohio 43041) comprising spaghnum peat moss, vermiculite, wetting agent and starter nutrients and treated with postemergence applications of test chemicals formulated in the same manner. Plants ranged in height from 2 to 18 cm (1- to 4-leaf stage) for postemergence treatments. Treated plants and controls were maintained in a greenhouse for 13 to 15 days, after which time all species were compared to controls and visually evaluated. Plant response ratings, summarized in Table D, are based on a scale of 0 to 100 where 0 is no effect and 100 is complete control. A dash (-) response means no test result.

[2] = tested on: ragweed (common ragweed, Ambrosia elatior); conditions: Ambrosia artemisiifolia; for pest or weed control at 16 g/ha: 16 g ai/ha; for pest or weed control at 31 g/ha: 31 g ai/ha; for pest or weed control at 62 g/ha: 62 g ai/ha; for pest or weed control at 125 g/ha: 125 g ai/ha
Excerpt: as §1

[3] = tested on: soybean (Glycine max); conditions: Glycine max; for plant injury at 16 g/ha: 16 g ai/ha; for plant injury at 31 g/ha: 31 g ai/ha; for plant injury at 62 g/ha: 62 g ai/ha; for plant injury at 125 g/ha: 125 g ai/ha
Excerpt: as §1

[4] = tested on: morningglory (Ipomoea coccinea); conditions: Ipomoea; for pest or weed control at 16 g/ha: 16 g ai/ha; for pest or weed control at 31 g/ha: 31 g ai/ha; for pest or weed control at 62 g/ha: 62 g ai/ha; for pest or weed control at 125 g/ha: 125 g ai/ha
Excerpt: as §1

[5] = tested on: waterhemp (common waterhemp, Amaranthus rudis); conditions: Amaranthus tuberculatus; for pest or weed control at 16 g/ha: 16 g ai/ha; for pest or weed control at 31 g/ha: 31 g ai/ha; for pest or weed control at 62 g/ha: 62 g ai/ha; for pest or weed control at 125 g/ha: 125 g ai/ha
Excerpt: as §1

[6] = tested on: oilseed rape (Brassica napus); conditions: Brassica napus; for plant injury at 16 g/ha: 16 g ai/ha; for plant injury at 31 g/ha: 31 g ai/ha; for plant injury at 62 g/ha: 62 g ai/ha; for plant injury at 125 g/ha: 125 g ai/ha
Excerpt: as §1

[7] = tested on: large (Lg) crabgrass (Digitaria sanguinalis); conditions: Digitaria sanguinalis; for pest or weed control at 16 g/ha: 16 g ai/ha; for pest or weed control at 31 g/ha: 31 g ai/ha; for pest or weed control at 62 g/ha: 62 g ai/ha; for pest or weed control at 125 g/ha: 125 g ai/ha
Excerpt: as §1

[8] = tested on: lambsquarters (Chenopodium album); conditions: Chenopodium album; for pest or weed control at 16 g/ha: 16 g ai/ha; for pest or weed control at 31 g/ha: 31 g ai/ha; for pest or weed control at 62 g/ha: 62 g ai/ha; for pest or weed control at 125 g/ha: 125 g ai/ha
Excerpt: as §1

[9] = tested on: galium (catchweed bedstraw, Galium aparine); conditions: Galium; for pest or weed control at 16 g/ha: 16 g ai/ha; for pest or weed control at 125 g/ha: 125 g ai/ha
Excerpt: as §1

[10] = post-emergence, Postemergence, scale 0 to 100 (0 no effect, 100 complete control), read-out: Pigweed plant response rating
[11] = post-emergence, Postemergence, scale 0 to 100, 0 no effect, 100 complete control, read-out: Plant response rating, Pigweed
[12] = pre-emergence, Preemergence, scale 0 to 100 (0 no effect, 100 complete control), read-out: Plant response rating, Pigweed
[13] = post-emergence, Postemergence, scale 0 to 100 (0 no effect, 100 complete control), read-out: Ragweed plant response rating
[14] = post-emergence, Postemergence, scale 0 to 100, 0 no effect, 100 complete control, read-out: Plant response rating, Ragweed
[15] = pre-emergence, Preemergence, scale 0 to 100 (0 no effect, 100 complete control), read-out: Plant response rating, Ragweed
[16] = post-emergence, Postemergence, scale 0 to 100 (0 no effect, 100 complete control), read-out: Soybean plant response rating
[17] = post-emergence, Postemergence, scale 0 to 100, 0 no effect, 100 complete control, read-out: Plant response rating, Soybean
[18] = pre-emergence, Preemergence, scale 0 to 100 (0 no effect, 100 complete control), read-out: Plant response rating, Soybean
[19] = post-emergence, Postemergence, scale 0 to 100 (0 no effect, 100 complete control), read-out: Morningglory plant response rating
[20] = post-emergence, Postemergence, scale 0 to 100, 0 no effect, 100 complete control, read-out: Plant response rating, Morningglory
[21] = pre-emergence, Preemergence, scale 0 to 100 (0 no effect, 100 complete control), read-out: Plant response rating, Morningglory
[22] = post-emergence, Postemergence, scale 0 to 100 (0 no effect, 100 complete control), read-out: Waterhemp plant response rating
[23] = post-emergence, Postemergence, scale 0 to 100, 0 no effect, 100 complete control, read-out: Plant response rating, Waterhemp
[24] = pre-emergence, Preemergence, scale 0 to 100 (0 no effect, 100 complete control), read-out: Plant response rating, Waterhemp
[25] = post-emergence, Postemergence, scale 0 to 100 (0 no effect, 100 complete control), read-out: Oilseed Rape plant response rating
[26] = post-emergence, Postemergence, scale 0 to 100, 0 no effect, 100 complete control, read-out: Plant response rating, Oilseed Rape
[27] = pre-emergence, Preemergence, scale 0 to 100 (0 no effect, 100 complete control), read-out: Plant response rating, Oilseed Rape
[28] = post-emergence, Postemergence, scale 0 to 100 (0 no effect, 100 complete control), read-out: Crabgrass, Large plant response rating
[29] = post-emergence, Postemergence, scale 0 to 100, 0 no effect, 100 complete control, read-out: Plant response rating, Crabgrass, Large
[30] = pre-emergence, Preemergence, scale 0 to 100 (0 no effect, 100 complete control), read-out: Plant response rating, Crabgrass, Large
[31] = post-emergence, Postemergence, scale 0 to 100 (0 no effect, 100 complete control), read-out: Lambsquarters plant response rating
[32] = post-emergence, Postemergence, scale 0 to 100, 0 no effect, 100 complete control, read-out: Plant response rating, Lambsquarters
[33] = pre-emergence, Preemergence, scale 0 to 100 (0 no effect, 100 complete control), read-out: Plant response rating, Lambsquarters

FC(F)c1cc(-c2ccccc2Oc2ncc(Cl)cn2)on1 [Compound 53, 5-chloro-2-[2-[3-(difluoromethyl)-5-isoxazolyl]phenoxy]pyrimidine]
pest or weed control at 16 g/ha [1, 10]: 85% | pest or weed control at 31 g/ha [1, 10]: 90% | pest or weed control at 62 g/ha [1, 11]: 90% | pest or weed control at 125 g/ha [1, 11]: 100% | pest or weed control at 125 g/ha ([1]; pre-emergence, Preemergence, read-out: Plant response rating (scale 0 to 100), Pigweed): 100% | pest or weed control at 16 g/ha [1, 12]: 95% | pest or weed control at 31 g/ha [1, 12]: 100% | pest or weed control at 62 g/ha [1, 12]: 100% | pest or weed control at 16 g/ha [2, 13]: 50% | pest or weed control at 31 g/ha [2, 13]: 50% | pest or weed control at 62 g/ha [2, 14]: 55% | pest or weed control at 125 g/ha [2, 14]: 55% | pest or weed control at 125 g/ha ([2]; pre-emergence, Preemergence, read-out: Plant response rating (scale 0 to 100), Ragweed): 85% | pest or weed control at 16 g/ha [2, 15]: 0% | pest or weed control at 31 g/ha [2, 15]: 40% | pest or weed control at 62 g/ha [2, 15]: 55% | plant injury at 16 g/ha [3, 16]: 60% | plant injury at 31 g/ha [3, 16]: 90% | plant injury at 62 g/ha [3, 17]: 95% | plant injury at 125 g/ha [3, 17]: 98% | plant injury at 125 g/ha ([3]; pre-emergence, Preemergence, read-out: Plant response rating (scale 0 to 100), Soybean): 80% | plant injury at 16 g/ha [3, 18]: 0% | plant injury at 31 g/ha [3, 18]: 25% | plant injury at 62 g/ha [3, 18]: 55% | pest or weed control at 16 g/ha [4, 19]: 50% | pest or weed control at 31 g/ha [4, 19]: 80% | pest or weed control at 62 g/ha [4, 20]: 85% | pest or weed control at 125 g/ha [4, 20]: 55% | pest or weed control at 125 g/ha ([4]; pre-emergence, Preemergence, read-out: Plant response rating (scale 0 to 100), Morningglory): 40% | pest or weed control at 16 g/ha [4, 21]: 0% | pest or weed control at 31 g/ha [4, 21]: 0% | pest or weed control at 62 g/ha [4, 21]: 45% | pest or weed control at 16 g/ha [5, 22]: 80% | pest or weed control at 31 g/ha [5, 22]: 90% | pest or weed control at 62 g/ha [5, 23]: 90% | pest or weed control at 125 g/ha [5, 23]: 100% | pest or weed control at 125 g/ha ([5]; pre-emergence, Preemergence, read-out: Plant response rating (scale 0 to 100), Waterhemp): 100% | pest or weed control at 16 g/ha [5, 24]: 100% | pest or weed control at 31 g/ha [5, 24]: 100% | pest or weed control at 62 g/ha [5, 24]: 100% | plant injury at 16 g/ha [6, 25]: 70% | plant injury at 31 g/ha [6, 25]: 80% | plant injury at 62 g/ha [6, 26]: 95% | plant injury at 125 g/ha [6, 26]: 85% | plant injury at 125 g/ha ([6]; pre-emergence, Preemergence, read-out: Plant response rating (scale 0 to 100), Oilseed Rape): 100% | plant injury at 16 g/ha [6, 27]: 80% | plant injury at 31 g/ha [6, 27]: 100% | plant injury at 62 g/ha [6, 27]: 100% | pest or weed control at 16 g/ha [7, 28]: 10% | pest or weed control at 31 g/ha [7, 28]: 20% | pest or weed control at 62 g/ha [7, 29]: 15% | pest or weed control at 125 g/ha [7, 29]: 30% | pest or weed control at 125 g/ha ([7]; pre-emergence, Preemergence, read-out: Plant response rating (scale 0 to 100), Crabgrass, Large): 100% | pest or weed control at 16 g/ha [7, 30]: 65% | pest or weed control at 31 g/ha [7, 30]: 95% | pest or weed control at 62 g/ha [7, 30]: 98% | pest or weed control at 16 g/ha [8, 31]: 70% | pest or weed control at 31 g/ha [8, 31]: 80% | pest or weed control at 62 g/ha [8, 32]: 100% | pest or weed control at 125 g/ha [8, 32]: 100% | pest or weed control at 125 g/ha ([8]; pre-emergence, Preemergence, read-out: Plant response rating (scale 0 to 100), Lambsquarters): 100% | pest or weed control at 16 g/ha [8, 33]: 100% | pest or weed control at 31 g/ha [8, 33]: 100% | pest or weed control at 62 g/ha [8, 33]: 100% | pest or weed control at 16 g/ha ([9]; post-emergence, Postemergence, scale 0 to 100 (0 no effect, 100 complete control), read-out: Galium plant response rating): 60% | pest or weed control at 31 g/ha ([9]; post-emergence, Postemergence, 31 g ai/ha, scale 0 to 100 (0 no effect, 100 complete control), read-out: Galium plant response rating): 85% | pest or weed control at 62 g/ha ([9]; post-emergence, Postemergence, 62 g ai/ha, scale 0 to 100, 0 no effect, 100 complete control, read-out: Plant response rating, Galium): 95% | pest or weed control at 125 g/ha ([9]; post-emergence, Postemergence, scale 0 to 100, 0 no effect, 100 complete control, read-out: Plant response rating, Galium): 90% | pest or weed control at 125 g/ha ([9]; pre-emergence, Preemergence, read-out: Plant response rating (scale 0 to 100), Galium): 98% | pest or weed control at 16 g/ha ([9]; pre-emergence, Preemergence, scale 0 to 100 (0 no effect, 100 complete control), read-out: Plant response rating, Galium): 85%
